Ends that are not written are not given here. Peptide text beside a SMILES is read from it. * marks the point of attachment. Palmitoyl = CCCCCCCCCCCCCCCC(=O)*

One may read the IC50 as the concentration needed to halve the response being measured.

Test [1] has as its target T1, hY4R (Homo sapiens, UniProt P50391). Briefly: Arr3–receptor interaction by BRET. In kind it is cell-based. The conditions noted are these: arr3 association after 10 min. (In general: BRET reads energy transfer from a luciferase to a nearby fluorophore.)
For test [2], the system named is Col-24 epithelial layers. Description: Antisecretory responses. In kind it is cell-based, human.
Test [3] deals with T1, hY4R. It counts as cell-based. The conditions noted are these: Col-24 epithelial layers, response to 10 nM hPP after prestimulation.
Test [4] deals with human neuropeptide Y receptor Y4 (hY4R) (human) (UniProt P50391). Description: radioligand binding.
For test [5], the target named is human neuropeptide Y receptor Y4 (hY4R) (human, UniProt P50391 1-375). Briefly: radioligand binding.
[6] abbreviates: Col-24 epithelial layers, 100 nM peptide.

Chain of human neuropeptide Y receptor Y4 (hY4R) (human) (P50391 whole entry): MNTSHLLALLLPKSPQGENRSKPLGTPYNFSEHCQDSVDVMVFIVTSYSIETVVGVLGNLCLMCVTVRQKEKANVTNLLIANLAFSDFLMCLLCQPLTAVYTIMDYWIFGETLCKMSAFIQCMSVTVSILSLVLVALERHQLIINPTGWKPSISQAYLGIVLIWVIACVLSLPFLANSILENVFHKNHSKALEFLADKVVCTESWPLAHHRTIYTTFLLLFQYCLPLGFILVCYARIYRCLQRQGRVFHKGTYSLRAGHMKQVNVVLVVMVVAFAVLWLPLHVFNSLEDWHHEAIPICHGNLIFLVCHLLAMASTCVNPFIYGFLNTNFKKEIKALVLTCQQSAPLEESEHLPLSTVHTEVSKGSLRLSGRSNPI
T1 sequence (P50391 whole entry): as above
Chain of human neuropeptide Y receptor Y4 (hY4R) (P50391 whole entry): as above

For the molecule `CCCCCCCCCCCCCCCC(=O)NCCCC[C@H](NC(=O)[C@H](C)NC(=O)[C@H](Cc1ccc(O)cc1)NC(=O)[C@H](CCC(N)=O)NC(=O)[C@H](C)NC(=O)[C@H](CCSC)NC(=O)[C@H](CCC(N)=O)NC(=O)[C@H](CCC(=O)O)NC(=O)[C@@H]1CCCN1C(=O)[C@@H](NC(=O)[C@H](C)NC(=O)[C@H](CC(N)=O)NC(=O)[C@H](CC(=O)O)NC(=O)CNC(=O)[C@@H]1CCCN1C(=O)[C@H](Cc1ccc(O)cc1)NC(=O)[C@@H](NC(=O)[C@@H]1CCCN1C(=O)[C@H](CCC(=O)O)NC(=O)[C@H](CC(C)C)NC(=O)[C@@H]1CCCN1C(=O)[C@H](C)N)C(C)C)[C@@H](C)O)C(=O)N[C@@H](CC(=O)O)C(=O)N[C@@H](CC(C)C)C(=O)N[C@@H](CCCNC(=N)N)C(=O)N[C@@H](CCCNC(=N)N)C(=O)N[C@@H](Cc1ccc(O)cc1)C(=O)N[C@H](C(=O)N[C@@H](CC(N)=O)C(=O)N[C@@H](CCSC)C(=O)N[C@@H](CC(C)C)C(=O)N[C@H](C(=O)N[C@@H](CCCNC(=N)N)C(=O)N[C@@H](CCC(N)=O)C(=O)N[C@@H](CCCNC(=N)N)C(=O)N[C@@H](Cc1ccc(O)cc1)C(N)=O)[C@@H](C)O)[C@@H](C)CC` [3A] (H-APLEPVYPGDNATPEQMAQYAK(Palmitoyl)DLRRYINMLTRQRY-NH2; N-terminus and C-terminus assumed), in test [1], the “arr3 recruitment, maximal netBRET (BRETmax)” value is reported as “increased arr3 recruitment”. Besides, the “Concentration–response in Col-24 cells (potency and efficacy)” value in test [2] (Col-24 cells, Isc) is “good activity and increased efficacy”. In addition, in test [2] (setting [6]), the “Isc response, time course” value is given as “prolonged reductions in Isc” and the “Onset of Isc response” value was “delayed”. Moreover, the “Maximum of Isc response” value in test [2] (Col-24 epithelial layers, 100 nM peptide, compared with 2A) is “higher maximum than the parental peptide”. In addition, the “Desensitization of hY4R after prestimulation” value in test [3] is “concentration-dependent desensitization”.

In the case of “APLEPVYPGDNATPEQMAQYAKDLRRYINMLTRQRY-NH2 [2A]”, in test [1], the “arr3 recruitment, maximal netBRET (BRETmax)” value is “robust arr3 recruitment”. Moreover, in test [2] (setting [6]), the “Isc response, time course” value was “rapid and transient activity”; the “Time of maximum Isc effect” value was “about 5 min”. The “Desensitization of hY4R after prestimulation” value in test [3] is on record as “concentration-dependent desensitization”.

“palmitoylated [K^22,Q^34]hPP (3A) (peptide)” came in with an IC50 in test [4] of 1.2 nM.

For the molecule “PEG22-modified [K^22,Q^34]hPP (5A) (peptide)”, in test [4], the IC50 is 94.2 nM.

Take “PEG5-modified [K^22,Q^34]hPP (4A) (peptide)”: in test [4], the IC50 stood at 36.8 nM.

B1: lead peptide 2A ([Q^34]hPP core sequence, Obinepitide) (peptide)
chain: APLEPVYPGDNATPEQMAQYAKDLRRYINMLTRQRY
modifications: ends and bridges not checked
B1: in test [5], the IC50 stood at 0.5 nM.
